Assay [1] deals with T1, TNFα-induced NF-κB signal transduction pathway (TNFR1 signaling) in THP-1 cells (Homo sapiens, UniProt P19438).
T1 sequence (P19438 30-455): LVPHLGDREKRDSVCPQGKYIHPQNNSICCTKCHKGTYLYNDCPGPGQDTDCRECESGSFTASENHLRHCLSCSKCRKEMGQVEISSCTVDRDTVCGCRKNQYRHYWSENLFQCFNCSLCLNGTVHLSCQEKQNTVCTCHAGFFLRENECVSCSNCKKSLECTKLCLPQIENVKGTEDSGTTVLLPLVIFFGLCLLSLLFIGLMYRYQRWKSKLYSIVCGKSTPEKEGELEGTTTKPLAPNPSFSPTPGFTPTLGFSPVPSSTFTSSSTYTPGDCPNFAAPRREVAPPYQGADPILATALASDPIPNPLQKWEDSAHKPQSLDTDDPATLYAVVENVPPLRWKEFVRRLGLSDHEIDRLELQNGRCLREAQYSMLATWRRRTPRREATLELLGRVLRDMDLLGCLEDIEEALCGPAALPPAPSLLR
Kind of assay: THP-1 Lucia NF-κB reporter cell assay, inhibition of TNFα-induced NF-κB signaling. The class given is cell-based. To be noted: THP-1 NF-κB Lucia reporter cells, 10 ng/mL TNFα, 16-18 h, secreted luciferase; read-out: THP-1 IC50. The gist of the method:
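Inhibition of TNFR1-driven NF-κB activation was measured as luminescence of secreted reporter luciferase following overnight (16-18 h) stimulation with 10 ng/mL TNFα.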

Assay [2] has as its target T2, human soluble TNFR1 (sTNFR1) (Homo sapiens, UniProt P19438).
T2 construct: made in house; host or cells: Sf21 (baculovirus)
T2 sequence (P19438 with tags, fused parts or gaps): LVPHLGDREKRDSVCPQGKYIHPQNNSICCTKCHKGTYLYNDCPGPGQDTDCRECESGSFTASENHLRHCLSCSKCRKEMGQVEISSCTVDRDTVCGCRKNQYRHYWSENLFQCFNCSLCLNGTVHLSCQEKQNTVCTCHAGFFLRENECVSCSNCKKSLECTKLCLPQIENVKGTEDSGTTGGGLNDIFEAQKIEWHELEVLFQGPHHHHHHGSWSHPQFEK
Kind of assay: Human sTNFR1-peptide displacement assay (LanthaScreen Eu TR-FRET binding assay). Put shortly:
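Readout is the 665/615 nm TR-FRET ratio (Eu anti-His donor, streptavidin-Alexa647 acceptor), normalized to DMSO and saturating displacer, fit by Morrison-based five-parameter logistic for Kd^app. His-tagged sTNFR1 (1-211) prebound to 100 nM biotinylated peptide SEQ ID NO.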

Numbered stars: 1 amine (or outer) side, 2 acyl side, 3 side chain; on linkers, the order of the positions; unused ones are H or OH. Bridge positions count the residues as written; N and C are the ends. Square brackets hold non-standard residues; d marks the D form. Peptide text beside a SMILES is read from it. * marks the point of attachment. Trp(βS-Me,7-OMe) = COc1cccc2c([C@H](C)[C@H](N)C(=O)O)c[nH]c12; Ala(1-bicyclo(1.1.1)pentyl) = N[C@@H](CC12CC(C1)C2)C(=O)O; Trp(1-CH2COOH) = N[C@@H](Cc1cn(CC(=O)O)c2ccccc12)C(=O)O; Phe(4-SO2NH2) = N[C@@H](Cc1ccc(S(N)(=O)=O)cc1)C(=O)O; Trp(7-CN) = N#Cc1cccc2c(C[C@H](N)C(=O)O)c[nH]c12; Trp(7-Cl) = N[C@@H](Cc1c[nH]c2c(Cl)cccc12)C(=O)O; Ala(pyrimidin-5-yl) = N[C@@H](Cc1cncnc1)C(=O)O; Phe(4-COOH) = N[C@@H](Cc1ccc(C(=O)O)cc1)C(=O)O; X64 = O=C([C@H](Cc1n[nH]c2ncccc12)N[*:1])[*:2]; Trp(7-aza) = N[C@@H](Cc1c[nH]c2ncccc12)C(=O)O; Pip(5R-OH) = O=C(O)[C@@H]1CC[C@@H](O)CN1; X1 = O=C([C@@H]1CC[C@H](N[*:1])C1)[*:2]; Pip(4-aza) = O=C(O)[C@@H]1CNCCN1; 4Pal = N[C@@H](Cc1ccncc1)C(=O)O; NMeE = CN[C@@H](CCC(=O)O)C(=O)O; dHyp = O=C(O)[C@H]1C[C@H](O)CN1; X33 = N#CCCN(CC(=O)[*:2])[*:1]; NMeS = CN[C@@H](CO)C(=O)O; Pip = O=C(O)[C@@H]1CCCCN1; αMeS = C[C@](N)(CO)C(=O)O; Carboxymethyl = O=C(O)C*; Nle = CCCC[C@H](N)C(=O)O; X37 = c1cncc(N*)c1; Sar = CNCC(=O)O

For the compound `CCCC[C@@H]1NC(=O)CSC[C@@H](C(N)=O)NC(=O)[C@H]([C@@H](C)c2c[nH]c3c(OC)cccc23)NC(=O)CN(C)C(=O)[C@H](Cc2ccc(O)cc2)NC(=O)[C@H](Cc2ccc(C(=O)O)cc2)NC(=O)[C@](C)(CO)NC(=O)[C@H](Cc2c[nH]c3c(Cl)cccc23)NC(=O)[C@H](Cc2ccncc2)NC(=O)[C@H](CC(N)=O)NC(=O)CN(CCC#N)C(=O)[C@H](Cc2c[nH]c3ncccc23)NC(=O)[C@@H]2CCCCN2C(=O)[C@H](Cc2ccncc2)NC1=O` [SEQ ID NO. 228] ({CH2CO}-[Nle][4Pal][Pip][Trp(7-aza)][X33]N[4Pal][Trp(7-Cl)][αMeS][Phe(4-COOH)]Y[Sar][Trp(βS-Me,7-OMe)]C-NH2; thioether N-14), the IC50 in assay [1] is 4 nM; in assay [2], 0.7 nM. Also, binding in assay [2] was characterised by a dissociation constant (Kd) of 0.64 nM.

As to `COc1cccc2c([C@H](C)[C@@H]3NC(=O)CN(C)C(=O)[C@H](Cc4ccc(O)cc4)NC(=O)[C@H](Cc4ccc(C(=O)O)cc4)NC(=O)[C@](C)(CO)NC(=O)[C@H](Cc4c[nH]c5c(Cl)cccc45)NC(=O)[C@H](Cc4ccncc4)NC(=O)[C@H](CC(N)=O)NC(=O)[C@H](CCC(=O)O)N(C)C(=O)[C@H](Cc4c[nH]c5ccccc45)NC(=O)[C@@H]4CNCCN4C(=O)[C@H](Cc4ccncc4)NC(=O)[C@H](CC45CC(C4)C5)NC(=O)[C@@H]4CC[C@@H](C4)NC3=O)c[nH]c12` [SEQ ID NO. 190] (cyclo([4Pal][Trp(7-Cl)][αMeS][Phe(4-COOH)]Y[Sar][Trp(βS-Me,7-OMe)][X1][Ala(1-bicyclo(1.1.1)pentyl)][4Pal][Pip(4-aza)]W[NMeE]N)), the IC50 in assay [1] amounted to 1.6 nM. In assay [2], the dissociation constant Kd came out at 0.33 nM.

With `COc1cccc2c([C@H](C)[C@@H]3NC(=O)CN(C)C(=O)[C@H](Cc4ccc(O)cc4)NC(=O)[C@H](Cc4ccc(C(=O)O)cc4)NC(=O)[C@](C)(CO)NC(=O)[C@H](Cc4c[nH]c5c(Cl)cccc45)NC(=O)[C@H](Cc4ccncc4)NC(=O)[C@H](CC(N)=O)NC(=O)[C@H](CCC(=O)O)N(C)C(=O)[C@H](Cc4c[nH]c5ccccc45)NC(=O)[C@H](CO)N(C)C(=O)[C@H](Cc4ccncc4)NC(=O)[C@H](CCC(=O)Nc4cccnc4)NC(=O)[C@@H]4CC[C@@H](C4)NC3=O)c[nH]c12` [SEQ ID NO. 166] (cyclo([4Pal][NMeS]W[NMeE]N[4Pal][Trp(7-Cl)][αMeS][Phe(4-COOH)]Y[Sar][Trp(βS-Me,7-OMe)][X1]E(X37))), the IC50 in assay [1] was found to be 2.7 nM; in assay [2], 0.5 nM. This compound also gave a Kd in assay [2] of 0.44 nM.

As to `CCCC[C@@H]1NC(=O)[C@@H]2CC[C@@H](C2)NC(=O)[C@H]([C@@H](C)c2c[nH]c3c(OC)cccc23)NC(=O)CN(C)C(=O)[C@H](Cc2ccc(OCC(=O)O)cc2)NC(=O)[C@H](Cc2ccc(S(N)(=O)=O)cc2)NC(=O)[C@](C)(CO)NC(=O)[C@H](Cc2c[nH]c3c(C#N)cccc23)NC(=O)[C@H](Cc2ccc(OCC(=O)O)cc2)NC(=O)[C@H](CC(N)=O)NC(=O)[C@H]2C[C@H](OCC(=O)O)CN2C(=O)[C@H](Cc2n[nH]c3ncccc23)NC(=O)[C@@H]2CC[C@@H](O)CN2C(=O)[C@H](Cc2cncnc2)NC1=O` [SEQ ID NO. 89] (cyclo([X1][Nle][Ala(pyrimidin-5-yl)][Pip(5R-OH)][X64][dHyp](Carboxymethyl)NY(Carboxymethyl)[Trp(7-CN)][αMeS][Phe(4-SO2NH2)]Y(Carboxymethyl)[Sar][Trp(βS-Me,7-OMe)])), the IC50 in assay [1] was determined as 1.2 nM. The compound also registered a Kd in assay [2] of 0.18 nM.

For the compound `CCCC[C@@H]1NC(=O)[C@@H]2CC[C@@H](C2)NC(=O)[C@H]([C@@H](C)c2c[nH]c3c(OC)cccc23)NC(=O)CN(C)C(=O)[C@H](Cc2ccc(O)cc2)NC(=O)[C@H](Cc2ccc(C(=O)O)cc2)NC(=O)[C@](C)(CO)NC(=O)[C@H](Cc2c[nH]c3c(Cl)cccc23)NC(=O)[C@H](Cc2ccncc2)NC(=O)[C@H](CC(N)=O)NC(=O)[C@H](CCC(=O)O)N(C)C(=O)[C@H](Cc2cn(CC(=O)O)c3ccccc23)NC(=O)[C@@H]2CNCCN2C(=O)[C@H](Cc2ccncc2)NC1=O` [SEQ ID NO. 197] (cyclo([4Pal][Trp(7-Cl)][αMeS][Phe(4-COOH)]Y[Sar][Trp(βS-Me,7-OMe)][X1][Nle][4Pal][Pip(4-aza)][Trp(1-CH2COOH)][NMeE]N)), in assay [1], the IC50 worked out at 0.7 nM. For the same compound, in assay [2], the Kd is 0.36 nM.
